Measured values taken from US10689362B2, “Quinoxaline compounds as type III receptor tyrosine kinase inhibitors” (Development Center for Biotechnology, priority 2016, dated 2020).
pIC50: −log10 of the molar value.

How the values were obtained:
[1] = tested on: CSF-1-dependent M-NFS-60 mouse myeloid leukemia cell; experiment: M-NFS-60 cell proliferation assay (CellTiter-96); assay type: cell-based; conditions: Cytotoxicity, M-NFS-60 cells, 72 hours
Method in brief: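 CSF-1-dependent M-NFS-60 cells seeded at 2000 cells/well, settled overnight at 37 °C, 5% CO2, then exposed to increasing compound concentrations for 72 h. Viability read by CellTiter 96 AQueous One reagent (4 h) at 490 nm absorbance.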

FLT3 kinase = FLT3 kinase (Homo sapiens (Human), UniProt P36888); experiment: FLT3 kinase assay (radiometric); assay type: biochemical; conditions: bound
FLT3 kinase, sequence (P36888 27-993): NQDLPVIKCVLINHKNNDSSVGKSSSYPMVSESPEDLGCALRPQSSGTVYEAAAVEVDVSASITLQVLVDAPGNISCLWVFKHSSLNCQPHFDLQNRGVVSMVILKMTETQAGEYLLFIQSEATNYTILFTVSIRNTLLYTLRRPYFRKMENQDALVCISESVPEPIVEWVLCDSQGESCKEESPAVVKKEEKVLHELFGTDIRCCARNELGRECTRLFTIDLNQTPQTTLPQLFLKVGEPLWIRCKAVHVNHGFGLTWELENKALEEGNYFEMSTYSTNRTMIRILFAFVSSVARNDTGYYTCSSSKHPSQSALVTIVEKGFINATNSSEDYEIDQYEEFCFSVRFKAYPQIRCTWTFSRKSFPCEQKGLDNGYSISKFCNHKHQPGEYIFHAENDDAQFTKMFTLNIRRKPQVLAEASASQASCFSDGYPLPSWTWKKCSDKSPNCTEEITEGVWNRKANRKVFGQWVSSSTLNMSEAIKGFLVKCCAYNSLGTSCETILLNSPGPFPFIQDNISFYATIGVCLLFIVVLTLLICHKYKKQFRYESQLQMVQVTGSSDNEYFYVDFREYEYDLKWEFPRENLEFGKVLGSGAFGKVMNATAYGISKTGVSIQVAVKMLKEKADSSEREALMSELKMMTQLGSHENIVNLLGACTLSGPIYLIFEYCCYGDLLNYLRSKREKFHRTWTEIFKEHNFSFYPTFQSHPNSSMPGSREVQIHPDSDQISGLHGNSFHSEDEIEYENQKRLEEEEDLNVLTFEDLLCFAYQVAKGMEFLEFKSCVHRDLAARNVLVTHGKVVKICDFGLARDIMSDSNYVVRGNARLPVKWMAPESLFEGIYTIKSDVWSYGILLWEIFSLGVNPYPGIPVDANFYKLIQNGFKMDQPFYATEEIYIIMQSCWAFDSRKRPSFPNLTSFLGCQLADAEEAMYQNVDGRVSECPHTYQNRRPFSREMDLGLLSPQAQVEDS
Method in brief: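 Recombinant FLT3 (5 ng) phosphorylating poly(Glu4:Tyr1) (2 μg) with 10 μM ATP plus [^33P]-ATP in MOPS pH 7.0 buffer, 4% DMSO final, 60 min at 30° C. Reaction stopped with phosphoric acid, filter-captured and scintillation-counted; IC50 derived from dose-response.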

c-KIT kinase = c-KIT kinase (Homo sapiens (Human), UniProt P10721); experiment: c-KIT kinase assay (radiometric); assay type: biochemical; conditions: class symbol
c-KIT kinase, sequence (P10721 26-976): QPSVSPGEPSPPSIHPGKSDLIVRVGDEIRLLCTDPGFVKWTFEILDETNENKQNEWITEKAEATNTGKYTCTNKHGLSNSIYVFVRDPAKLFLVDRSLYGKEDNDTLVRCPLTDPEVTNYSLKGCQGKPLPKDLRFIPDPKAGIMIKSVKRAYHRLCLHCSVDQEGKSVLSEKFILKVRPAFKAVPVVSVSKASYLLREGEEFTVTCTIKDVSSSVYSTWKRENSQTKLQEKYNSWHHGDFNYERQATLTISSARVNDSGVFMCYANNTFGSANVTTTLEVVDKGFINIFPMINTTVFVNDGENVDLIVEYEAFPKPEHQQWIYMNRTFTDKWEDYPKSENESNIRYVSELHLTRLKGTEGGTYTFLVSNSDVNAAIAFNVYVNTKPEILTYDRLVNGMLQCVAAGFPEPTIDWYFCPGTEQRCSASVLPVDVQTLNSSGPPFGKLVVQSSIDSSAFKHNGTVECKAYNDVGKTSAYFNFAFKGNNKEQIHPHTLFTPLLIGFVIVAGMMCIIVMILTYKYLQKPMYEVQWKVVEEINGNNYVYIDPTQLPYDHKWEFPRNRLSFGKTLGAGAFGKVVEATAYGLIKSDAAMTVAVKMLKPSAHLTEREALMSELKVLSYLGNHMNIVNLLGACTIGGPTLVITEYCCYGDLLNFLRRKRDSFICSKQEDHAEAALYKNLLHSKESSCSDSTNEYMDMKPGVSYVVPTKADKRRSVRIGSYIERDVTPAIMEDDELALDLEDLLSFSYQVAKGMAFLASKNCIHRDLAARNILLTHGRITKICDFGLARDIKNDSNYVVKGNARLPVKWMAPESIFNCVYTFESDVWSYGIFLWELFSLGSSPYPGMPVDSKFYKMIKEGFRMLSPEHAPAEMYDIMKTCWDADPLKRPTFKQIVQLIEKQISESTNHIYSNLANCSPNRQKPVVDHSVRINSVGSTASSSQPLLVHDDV
Method in brief: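 Recombinant c-Kit (20 ng) with 2 μg Poly-(Glu4:Tyr1) in MOPS pH 7.0 buffer with MgCl2/MnCl2, 10 μM ATP plus [^33P]-ATP, 4% DMSO final, 60 min at 30° C. Stopped with phosphoric acid, filter-captured and scintillation counted; IC50 from curve fit.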

[2] = tested on: THP-1 human acute monocytic leukemia cell harboring NRAS G12D mutation; experiment: THP-1 cell proliferation assay (counter screen, CellTiter-96); assay type: cell-based; conditions: Cytotoxicity, THP-1 cells (counter screen), 72 hours
Method in brief: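 THP-1 cells, RTK-independent owing to NRAS G12D, seeded at 5000/well, incubated overnight at 37 °C/5% CO2, then exposed to increasing compound concentrations for 72 h. CellTiter96 AQueous One reagent added for 4 h; viability from absorbance at 490 nm.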

[3] = tested on: Kasumi-1 human acute myeloid leukemia cell with c-KIT N822K activating mutation; experiment: Kasumi-1 cell proliferation assay (CellTiter-96); assay type: cell-based; conditions: Cytotoxicity, Kasumi-1 cells, 72 hours
Method in brief: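 Kasumi-1 cells, seeded at 64000 cells/well and incubated overnight at 37 °C, were exposed to increasing compound concentrations for 72 h. Viability was measured by CellTiter96 AQueous One reagent (4 h) and absorbance at 490 nm.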

PDGFRβ kinase = PDGFRβ kinase (Homo sapiens (Human), UniProt P09619); experiment: PDGFRβ kinase assay (radiometric); assay type: biochemical; conditions: bound
PDGFRβ kinase, sequence (P09619 33-1106): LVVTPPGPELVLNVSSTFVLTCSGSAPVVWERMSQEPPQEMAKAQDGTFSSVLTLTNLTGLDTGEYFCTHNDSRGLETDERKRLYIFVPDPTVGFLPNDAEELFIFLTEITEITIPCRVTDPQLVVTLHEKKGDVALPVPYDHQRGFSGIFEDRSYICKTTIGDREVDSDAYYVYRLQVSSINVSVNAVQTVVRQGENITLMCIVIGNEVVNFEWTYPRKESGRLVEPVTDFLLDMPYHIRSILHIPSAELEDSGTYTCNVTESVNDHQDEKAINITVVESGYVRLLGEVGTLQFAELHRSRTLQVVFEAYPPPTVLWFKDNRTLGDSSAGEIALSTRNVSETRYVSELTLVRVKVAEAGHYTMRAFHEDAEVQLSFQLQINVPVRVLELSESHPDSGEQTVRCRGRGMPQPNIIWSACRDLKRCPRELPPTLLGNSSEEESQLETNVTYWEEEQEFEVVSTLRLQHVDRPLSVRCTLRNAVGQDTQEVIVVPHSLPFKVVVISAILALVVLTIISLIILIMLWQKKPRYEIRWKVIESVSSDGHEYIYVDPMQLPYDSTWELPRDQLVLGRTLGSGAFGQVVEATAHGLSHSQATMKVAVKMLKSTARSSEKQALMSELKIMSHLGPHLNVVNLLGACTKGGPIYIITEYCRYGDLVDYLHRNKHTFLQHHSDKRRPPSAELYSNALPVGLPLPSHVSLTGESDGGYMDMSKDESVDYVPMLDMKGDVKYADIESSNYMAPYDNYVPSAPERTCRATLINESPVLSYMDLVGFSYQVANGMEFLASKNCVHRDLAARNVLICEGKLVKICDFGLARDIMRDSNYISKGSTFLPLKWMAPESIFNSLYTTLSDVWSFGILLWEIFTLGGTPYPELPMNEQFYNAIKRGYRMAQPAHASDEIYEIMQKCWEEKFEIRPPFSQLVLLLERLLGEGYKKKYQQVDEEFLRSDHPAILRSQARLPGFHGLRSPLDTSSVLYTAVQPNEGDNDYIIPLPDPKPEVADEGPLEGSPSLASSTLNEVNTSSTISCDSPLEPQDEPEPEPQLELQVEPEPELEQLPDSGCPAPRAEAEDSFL
Method in brief: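 Radiometric assay: recombinant PDGFRβ with poly(Glu4:Tyr1) in MOPS pH 7.0 buffer containing Mg2+/Mn2+, 10 μM ATP plus [33P]-ATP, and compound at 4% DMSO final. Incubated 60 min at 30° C, stopped with phosphoric acid, filter-captured and scintillation-counted. IC50 from curve fitting.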

CSF-1R kinase = CSF-1R kinase (Homo sapiens (Human), UniProt P07333); experiment: CSF-1R kinase assay (AlphaScreen); assay type: biochemical; conditions: class symbol
CSF-1R kinase, sequence (P07333 20-972): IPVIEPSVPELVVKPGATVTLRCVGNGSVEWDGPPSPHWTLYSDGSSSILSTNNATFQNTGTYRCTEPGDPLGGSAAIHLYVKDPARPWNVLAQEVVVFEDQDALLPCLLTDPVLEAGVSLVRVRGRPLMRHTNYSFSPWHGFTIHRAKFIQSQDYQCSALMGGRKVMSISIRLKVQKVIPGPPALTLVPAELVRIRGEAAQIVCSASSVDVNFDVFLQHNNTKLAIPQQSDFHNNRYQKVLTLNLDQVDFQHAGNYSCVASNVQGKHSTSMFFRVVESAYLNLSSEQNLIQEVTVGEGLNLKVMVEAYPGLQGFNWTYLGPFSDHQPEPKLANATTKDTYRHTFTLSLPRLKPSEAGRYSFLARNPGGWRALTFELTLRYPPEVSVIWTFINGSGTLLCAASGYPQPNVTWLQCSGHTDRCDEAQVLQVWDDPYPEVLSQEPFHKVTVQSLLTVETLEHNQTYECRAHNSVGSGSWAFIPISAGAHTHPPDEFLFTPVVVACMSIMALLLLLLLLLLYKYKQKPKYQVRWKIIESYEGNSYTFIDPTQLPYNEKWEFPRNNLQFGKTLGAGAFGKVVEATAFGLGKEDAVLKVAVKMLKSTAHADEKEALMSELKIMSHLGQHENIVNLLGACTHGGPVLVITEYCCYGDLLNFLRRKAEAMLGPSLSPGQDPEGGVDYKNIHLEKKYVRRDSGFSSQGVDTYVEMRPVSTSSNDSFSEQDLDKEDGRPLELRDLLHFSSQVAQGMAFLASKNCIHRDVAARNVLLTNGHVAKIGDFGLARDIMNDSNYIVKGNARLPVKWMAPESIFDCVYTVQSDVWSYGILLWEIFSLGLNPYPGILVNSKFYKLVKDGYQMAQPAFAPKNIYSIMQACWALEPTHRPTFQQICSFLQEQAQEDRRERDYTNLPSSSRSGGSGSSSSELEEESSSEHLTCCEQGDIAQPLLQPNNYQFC
Description: Inhibition of CSF-1R kinase activity by a test compound disclosed herein was estimated by AlphaScreen (PerkinElmer). […] Reactions were incubated at 30° C. for 45 min and stopped by adding 5 μL of 50 mM EDTA. Analysis of resulting product using an AlphaScreen kit, and counted with Enspire Alpha (PerkinElmer). […] The IC50 values of quinoxaline compounds of this invention against CSF-1R kinase were determined using the GraphPad Prism 5 software.

[4] = tested on: MV4-11 human acute myeloid leukemia cell with FLT3-ITD mutation; experiment: MV4-11 cell proliferation assay (CellTiter-96); assay type: cell-based; conditions: Cytotoxicity, MV4-11 cells, 72 hours
Method in brief: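 MV4-11 cells (FLT3-ITD, FLT3-dependent growth) seeded at 6500 cells/well, incubated overnight at 37° C., 5% CO2, then exposed to increasing compound concentrations for 72 hours. Viability read by CellTiter96 AQueous One reagent (4 hours), absorbance at 490 nm.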

[5] = tested on: osteoclast precursors (osteoclast differentiation); experiment: Osteoclast tartrate-resistant acid phosphatase assay; assay type: cell-based; conditions: 168 h, at 1 μM treatment, 7 days, RANKL and M-CSF, read-out: inhibition activity against osteoclast differentiation
Method in brief: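 Differentiation inhibition was scored at 1 μM compound in duplicate, using supernatant TRAP activity read at 550 nm with an acid phosphatase kit.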

pIC50 (FLT3 kinase)	pIC50 (c-KIT kinase)	pIC50 (PDGFRβ kinase)	pIC50 (CSF-1R kinase)	SMILES	pIC50 [1]	pIC50 [2]	pIC50 [3]	pIC50 [4]	inhibition at 1 µM [5] [%]
< 6.00	6.52 to 7.00	< 6.00	> 7.00	COc1ccc(COc2ccc(Nc3ccc4ncc(N5CCC(N6CCOCC6)CC5)nc4c3C#N)cc2OC)cn1 [Example 102, 6-((3-methoxy-4-((6-methoxypyridin-3-yl)methoxy)phenyl)amino)-3-(4-morpholinopiperidin-1-yl)quinoxaline-5-carbonitrile]	> 6.52	< 5.00	> 6.52	< 5.00	> 50
< 6.00	> 7.00	< 6.00	> 7.00	COc1cc(Nc2ccc3ncc(N4CCOCC4)nc3c2C#N)ccc1OCc1cnn(C)c1 [Example 105, 6-((3-methoxy-4-((1-methyl-1H-pyrazol-4-yl)methoxy)phenyl)amino)-3-morpholinoquinoxaline-5-carbonitrile]	> 6.52	< 5.00	6.00 to 6.52	5.00 to 6.00	> 50
< 6.00	6.52 to 7.00	< 6.00	> 7.00	COc1ccc(COc2ccc(Nc3ccc4ncc(N(C)C)nc4c3C#N)cc2OC)cc1C#N [Example 139, 6-((4-((3-cyano-4-methoxybenzyl)oxy)-3-methoxyphenyl)amino)-3-(dimethylamino)quinoxaline-5-carbonitrile]	> 6.52	< 5.00	< 5.00	< 5.00	> 50
< 6.00	6.52 to 7.00	< 6.00	> 7.00	COCc1ccc(COc2ccc(Nc3ccc4ncc(N5CCOCC5)nc4c3C#N)cc2OC)cn1 [Example 107, 6-((3-methoxy-4-((6-(methoxymethyl)pyridin-3-yl)methoxy)phenyl)amino)-3-morpholinoquinoxaline-5-carbonitrile]	> 6.52	< 5.00	6.00 to 6.52	5.00 to 6.00	> 50
< 6.00	6.52 to 7.00	< 6.00	> 7.00	COc1ccc(COc2ccc(Nc3ccc4ncc(N5CCOCC5)nc4c3C#N)cc2OC)cc1C#N [Example 96, 6-((4-((3-cyano-4-methoxybenzyl)oxy)-3-methoxy-phenyl)amino)-3-morpholinoquinoxaline-5-carbonitrile]	> 6.52	< 5.00	< 5.00	5.00 to 6.00	> 50
< 6.00	6.00 to 6.52	< 6.00	> 7.00	COc1ccc(COc2ccc(Nc3ccc4ncc(N5CCOCC5)nc4c3C#N)cc2OC)nc1 [Example 132, 6-((3-methoxy-4-((5-methoxypyridin-2-yl)methoxy)phenyl)amino)-3-morpholinoquinoxaline-5-carbonitrile]	6.00 to 6.52	< 5.00	< 5.00	< 5.00	> 50
< 6.00	> 7.00	< 6.00	> 7.00	COc1cc(Nc2ccc3ncc(N4CCOCC4)nc3c2C#N)ccc1OCc1cccs1 [Example 127, 6-((3-methoxy-4-(thiophen-2-ylmethoxy)phenyl)amino)-3-morpholinoquinoxaline-5-carbonitrile]	5.00 to 6.00	< 5.00	6.00 to 6.52	5.00 to 6.00	> 50
< 6.00	> 7.00	< 6.00	> 7.00	COc1cc(Nc2ccc3ncc(N4CC(N(C)C)C4)nc3c2C#N)ccc1OCc1ccc(C)nc1 [Example 136, 3-(3-(dimethylamino)azetidin-1-yl)-6-((3-methoxy-4-((6-methylpyridin-3-yl)methoxy)phenyl)amino)quinoxaline-5-carbonitrile]	6.00 to 6.52	< 5.00	5.00 to 6.00	5.00 to 6.00	> 50

Further lines, the compound ahead of its results:

SMILES	pIC50 (FLT3 kinase)	pIC50 (c-KIT kinase)	pIC50 (PDGFRβ kinase)	pIC50 (CSF-1R kinase)	pIC50 [1]	pIC50 [2]	pIC50 [3]	pIC50 [4]	inhibition at 1 µM [5] [%]
COc1ccc(COc2ccc(Nc3ccc4ncc(N5CCOCC5)nc4c3)cc2OC)cc1 [Example 24, N-(3-methoxy-4-((4-methoxybenzyl)oxy)phenyl)-3-morpholinoquinoxalin-6-amine]	< 6.00	> 7.00	< 6.00	> 7.00	> 6.52	< 5.00	> 6.52	5.00 to 6.00	> 50
COc1ccc(COc2ccc(Nc3ccc4ncc(N5CCN(C(C)C)CC5)nc4c3C#N)cc2OC)cc1 [Example 80, 3-(4-isopropylpiperazin-1-yl)-6-((3-methoxy-4-((4-methoxybenzyl)oxy)phenyl)amino)quinoxaline-5-carbonitrile]	< 6.00	> 7.00	< 6.00	> 7.00	> 6.52	5.00 to 6.00	> 6.52	5.00 to 6.00	> 50
COc1cc(Nc2ccc3ncc(N4CCOCC4)nc3c2C#N)ccc1OCc1ccc2c(c1)OCO2 [Example 81, 6-((4-(benzo[d][1,3]dioxol-5-ylmethoxy)-3-methoxyphenyl)amino)-3-morpholinoquinoxaline-5-carbonitrile]	< 6.00	6.00 to 6.52	< 6.00	> 7.00	> 6.52	< 5.00	< 5.00	< 5.00	> 50
COc1ccc(COc2ccc(Nc3ccc4ncc(N5CCNCC5)nc4c3C#N)cc2OC)cn1 [Example 59, 6-((3-methoxy-4-((6-methoxypyridin-3-yl)methoxy)phenyl)amino)-3-(piperazin-1-yl)quinoxaline-5-carbonitrile]	< 6.00	6.52 to 7.00	< 6.00	> 7.00	> 6.52	5.00 to 6.00	6.00 to 6.52	5.00 to 6.00	> 50
COc1ccc(COc2ccc(Oc3ccc4ncc(N5CCOCC5)nc4c3C#N)cc2OC)cc1 [Example 27, 6-(3-methoxy-4-((4-methoxybenzyl)oxy)phenoxy)-3-morpholinoquinoxaline-5-carbonitrile]	< 6.00	6.52 to 7.00	< 6.00	> 7.00	> 6.52	< 5.00	> 6.52	< 5.00	> 50
COc1ccc(COc2ccc(Nc3ccc4ncc(N5CCN(CCO)CC5)nc4c3C#N)cc2OC)cn1 [Example 75, 3-(4-(2-hydroxyethyl)piperazin-1-yl)-6-((3-methoxy-4-((6-methoxypyridin-3-yl)methoxy)phenyl)amino)quinoxaline-5-carbonitrile]	< 6.00	6.52 to 7.00	< 6.00	> 7.00	> 6.52	< 5.00	6.00 to 6.52	< 5.00	> 50
COc1cc(Nc2ccc3ncc(N4CCNCC4)nc3c2C#N)ccc1OCc1ccc(C)nc1 [Example 67, 6-((3-methoxy-4-((6-methylpyridin-3-yl)methoxy)phenyl)amino)-3-(piperazin-1-yl)quinoxaline-5-carbonitrile]	< 6.00	> 7.00	< 6.00	> 7.00	> 6.52	5.00 to 6.00	5.00 to 6.00	5.00 to 6.00	> 50
